Target: T1, human PAD4 (Homo sapiens, UniProt Q9UM07)
T1 construct: human PAD4 (NM_012387), A2-P663, was PCR amplified; His-SUMO (N, cleaved yes); made in house; host or cells: E. coli BL21(DE3)
Assay: In vitro PAD4 BAEE biochemical assay
Conditions: BAEE substrate 3 mM, 5 nM PAD4, 2 mM calcium chloride; geometric mean of multiple experiments
Procedure, shortened: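 Recombinant PAD4 (5 nM final) with 2 mM CaCl2 was preincubated with compound for 30 min at 25 °C in MOPS pH 7.6 buffer with DTT, then reacted with 3 mM BAEE for 2 h at 25 °C. Released ammonia was detected fluorimetrically with o-phthalaldehyde/DTT; IC50 from four-parameter fit, geometric mean of experiments.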

T1 sequence (Q9UM07 2-663): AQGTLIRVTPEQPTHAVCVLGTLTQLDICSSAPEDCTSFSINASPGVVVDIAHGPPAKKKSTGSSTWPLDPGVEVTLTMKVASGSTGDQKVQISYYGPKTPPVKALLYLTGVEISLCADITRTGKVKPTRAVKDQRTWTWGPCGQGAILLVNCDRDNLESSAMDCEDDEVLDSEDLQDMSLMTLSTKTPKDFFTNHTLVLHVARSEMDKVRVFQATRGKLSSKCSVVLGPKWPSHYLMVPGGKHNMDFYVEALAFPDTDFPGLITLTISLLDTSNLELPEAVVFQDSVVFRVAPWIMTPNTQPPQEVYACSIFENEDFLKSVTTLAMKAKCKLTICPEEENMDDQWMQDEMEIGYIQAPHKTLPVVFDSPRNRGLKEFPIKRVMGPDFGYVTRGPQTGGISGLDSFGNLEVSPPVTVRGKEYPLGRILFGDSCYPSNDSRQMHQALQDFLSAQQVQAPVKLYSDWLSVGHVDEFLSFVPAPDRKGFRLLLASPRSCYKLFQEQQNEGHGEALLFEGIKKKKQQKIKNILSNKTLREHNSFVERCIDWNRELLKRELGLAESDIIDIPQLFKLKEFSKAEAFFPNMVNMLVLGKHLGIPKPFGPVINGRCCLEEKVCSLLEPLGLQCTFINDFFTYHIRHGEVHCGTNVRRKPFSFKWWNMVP

SMILES | IC50 [nM]
COc1cc(C(=O)N2CC[C@H]3OCCN[C@H]3C2)cc2nc(-c3cc4ccc5nc4n3CCCCCCC3(CC3)C(=O)N[C@@H]5C)n(C)c12 [Example 343, (11~{R})-17-[5-[(4~{a}~{S),8~{a}~{R})-2,3,4,4~{a},5,7,8,8~{a}-octahydropyrido[4,3-b][1,4]oxazine-6-carbonyl]-7-methoxy-1-methyl-benzimidazol-2-yl]-11-methyl-spiro[1,10,19-triazatricyclo[10.5.2.0^{15,18}]nonadeca-12(19),13,15(18),16-tetraene-8,1′-cyclopropane]-9-one] | 371
COc1cc(C(=O)N[C@H]2CNCC[C@@H]2F)cc2nc(-c3cc4ccc5nc4n3CCCCCc3cnccc3C(=O)N[C@@H]5C)n(C)c12 [Example 344, ~{N}-[(3~{S},4~{S})-4-fluoro-3-piperidyl]-7-methoxy-1-methyl-2-[(2~{R})-2-methyl-4-oxo-3,8,16,22-tetrazatetracyclo[14.5.2.0^{5,10}.0^{19,23}]tricosa-1(22),5,7,9,17,19(23),20-heptaen-17-yl]benzimidazole-5-carboxamide] | 51
COc1cc(C(=O)N[C@H]2CNCC[C@@H]2F)cc2nc(-c3cc4ccc5nc4n3CCCCCc3cccc(F)c3C(=O)N[C@@H]5C)n(C)c12 [Example 345, 2-[(2~{R})-6-fluoro-2-methyl-4-oxo-3,16,22-triazatetracyclo[14.5.2.0^{5,10}.0^{19,23)]tricosa-1(22),5,7,9,17,19(23),20-heptaen-17-yl]-~{N}-[(3~{S},4~{S})-4-fluoro-3-piperidyl]-7-methoxy-1-methyl-benzimidazole-5-carboxamide] | 60
COc1cc(C(=O)N[C@H]2CNCC[C@@H]2F)cc2nc(-c3cc4ccc5nc4n3C[C@@H]3C[C@H]3CCc3ccccc3C(=O)N[C@@H]5C)n(C)c12 [Example 346, ~{N}-[(3~{S),4~{S})-4-fluoro-3-piperidyl]-7-methoxy-1-methyl-2-[(3~{R},5~{R},16~{R})-16-methyl-14-oxo-1,15,24-triazapentacyclo[15.5.2.0^{3,5}.0^{8,13}.0^ {20,23}]tetracosa-8,10,12,17(24),18,20(23),21-heptaen-22-yl]benzimidazole-5-carboxamide] | 97
C[C@H]1NC(=O)c2ccccc2CCCCCn2c(-c3nc4cc(C(=O)N[C@H]5CNCC[C@@H]5F)c(F)cc4n3C3CC3)cc3ccc1nc32 [Example 347, 1-cyclopropyl-6-fluoro-~{N}-[(3~{S},4~{S})-4-fluoro-3-piperidyl]-2-[(2~{R})-2-methyl-4-oxo-3,16,22-triazatetracyclo[14.5.2.0^{5,10}.0^{19,23}]tricosa-1(22),5,7,9,17,19(23),20-heptaen-17-yl]benzimidazole-5-carboxamide] | 51
C[C@H]1NC(=O)c2ccccc2CC[C@@H]2C[C@H]2Cn2c(-c3nc4cc(C(=O)N[C@H]5CNCC[C@@H]5F)c(F)cc4n3C3CC3)cc3ccc1nc32 [Example 348, 1-cyclopropyl-6-fluoro-~{N}-[(3~{S},4~{S})-4-fluoro-3-piperidyl]-2-[(3~{R},5~{R},16~{R})-16-methyl-14-oxo-1,15,24-triazapentacyclo[15.5.2.0^{3,5}.0^{8,13}.0^ {20,23}]tetracosa-8,10,12,17(24),18,20(23),21-heptaen-22-yl]benzimidazole-5-carboxamide] | 66
C[C@H]1NC(=O)c2cnccc2CCCCCn2c(-c3nc4cc(C(=O)N[C@H]5CNCC[C@@H]5F)c(F)cc4n3C)cc3ccc1nc32 [Example 349, 6-fluoro-~{N}-[(3~{S},4~{S})-4-fluoro-3-piperidyl]-1-methyl-2-[(2~{R})-2-methyl-4-oxo-3,7,16,22-tetrazatetracyclo[14.5.2.0^{5,10}.0^{19,23}]tricosa-1(22),5,7,9,17,19(23),20-heptaen-17-yl]benzimidazole-5-carboxamide] | 34
C[C@H]1NC(=O)c2ccncc2CCCCCn2c(-c3nc4cc(C(=O)N[C@H]5CNCC[C@@H]5F)c(F)cc4n3C)cc3ccc1nc32 [Example 350, 6-fluoro-~{N}-[(3~{S},4~{S})-4-fluoro-3-piperidyl]-1-methyl-2-[(2~{R})-2-methyl-4-oxo-3,8,16,22-tetrazatetracyclo[14.5.2.0^{5,10}.0^{19,23}]tricosa-1(22),5,7,9,17,19(23),20-heptaen-17-yl]benzimidazole-5-carboxamide] | 38
C[C@H]1NC(=O)c2ccccc2CC[C@H]2C[C@@H]2Cn2c(-c3nc4cc(C(=O)N[C@H]5CNCC[C@@H]5F)c(F)cc4n3C)cc3ccc1nc32 [Example 351, 6-fluoro-~{N}-[(3~{S},4~{S})-4-fluoro-3-piperidyl]-1-methyl-2-[(3~{S},5~{S),16~{R})-16-methyl-14-oxo-1,15,24-triazapentacyclo[15.5.2.0^{3,5}.0^{8,13}.0^ {20,23}]tetracosa-8,10,12,17(24),18,20(23),21-heptaen-22-yl]benzimidazole-5-carboxamide] | 97
C[C@H]1NC(=O)c2cccc(F)c2CCCCCn2c(-c3nc4cc(C(=O)N[C@H]5CNCC[C@@H]5F)c(F)cc4n3C)cc3ccc1nc32 [Example 352, 6-fluoro-2-[(2~{R})-9-fluoro-2-methyl-4-oxo-3,16,22-triazatetracyclo[14.5.2.0^{5,10).0^{19,23}]tricosa-1(22),5,7,9,17,19(23),20-heptaen-17-yl]-~{N}-[(3~{S),4~{S})-4-fluoro-3-piperidyl]-1-methyl-benzimidazole-5-carboxamide] | 53
C[C@H]1NC(=O)c2ccncc2CCCCCn2c(-c3nc4cc(C(=O)N[C@H]5CNCC[C@@H]5F)c(F)cc4n3C3CC3)cc3ccc1nc32 [Example 353, 1-cyclopropyl-6-fluoro-~{N}-[(3~{S},4~{S})-4-fluoro-3-piperidyl]-2-[(2~{R})-2-methyl-4-oxo-3,8,16,22-tetrazatetracyclo[14.5.2.0^{5,10}.0^{19,23}]tricosa-1(22),5,7,9,17,19(23),20-heptaen-17-yl]benzimidazole-5-carboxamide] | 29
C[C@H]1NC(=O)c2c(Cl)cncc2CCCCCn2c(-c3nc4cc(C(=O)N[C@H]5CNCC[C@@H]5F)c(F)cc4n3C3CC3)cc3ccc1nc32 [Example 354, 2-[(2~{R})-6-chloro-2-methyl-4-oxo-3,8,16,22-tetrazatetracyclo[14.5.2.0^{5,10}.0^{19,23}]tricosa-1(22),5,7,9,17,19(23),20-heptaen-17-yl]-1-cyclopropyl-6-fluoro- ~{N}-[(3~{S},4~{S})-4-fluoro-3-piperidyl]benzimidazole-5-carboxamide] | 26
C[C@H]1NC(=O)c2c(F)cncc2CCCCCn2c(-c3nc4cc(C(=O)N[C@H]5CNCC[C@@H]5F)c(F)cc4n3C3CC3)cc3ccc1nc32 [Example 355, 1-cyclopropyl-6-fluoro-2-[(2~{R})-6-fluoro-2-methyl-4-oxo-3,8,16,22-tetrazatetracyclo[14.5.2.0^{5,10}.0^{19,23}]tricosa-1(22),5,7,9,17,19(23),20-heptaen-17-yl]~{N}-[(3~{S},4~{S})-4-fluoro-3-piperidyl]benzimidazole-5-carboxamide] | 18
C[C@H]1NC(=O)c2cc(Cl)ncc2CCCCCn2c(-c3nc4cc(C(=O)N[C@H]5CNCC[C@@H]5F)c(F)cc4n3C3CC3)cc3ccc1nc32 [Example 356, 2-[(2~{R})-7-chloro-2-methyl-4-oxo-3,8,16,22-tetrazatetracyclo[14.5.2.0^{5,10).0^{19,23}]tricosa-1(22),5,7,9,17,19(23),20-heptaen-17-yl]-1-cyclopropyl-6-fluoro-~ {N}-[(3~{S},4~{S})-4-fluoro-3-piperidyl]benzimidazole-5-carboxamide] | 37

Source: patent publication US11976083B2, “Inhibitors of peptidylarginine deiminases” (Gilead Sciences, Inc., priority 2020, dated 2024)
